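Five compound concentrations were applied to cells in 96-well plates for 48 hours; endpoints were derived by simple linear interpolation of the resulting dose-response curve. TGI: concentration producing complete growth inhibition.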
Columns and labels:
Experiment in all cases: inhibition of tumour cell growth, NCI panel, 48 h
786-0 renal = tested on: 786-0 renal
A498 renal = tested on: A498 renal
A549 NSCLC = tested on: A549 NSCLC
ACHN renal = tested on: ACHN renal
BT-549 breast = tested on: BT-549 breast
CAKI-1 renal = tested on: CAKI-1 renal
CCRF-CEM leukemia = tested on: CCRF-CEM leukemia
COLO 205 colon = tested on: COLO 205 colon
DU-145 prostate = tested on: DU-145 prostate
EKVX NSCLC = tested on: EKVX NSCLC
HCC-2998 colon = tested on: HCC-2998 colon
HCT-116 colon = tested on: HCT-116 colon
HCT-15 colon = tested on: HCT-15 colon
HL-60(TB) leukemia = tested on: HL-60(TB) leukemia
HOP-62 NSCLC = tested on: HOP-62 NSCLC
HOP-92 NSCLC = tested on: HOP-92 NSCLC
HT29 colon = tested on: HT29 colon
IGROV1 ovarian = tested on: IGROV1 ovarian
K-562 leukemia = tested on: K-562 leukemia
KM12 colon = tested on: KM12 colon
LOX IMVI melanoma = tested on: LOX IMVI melanoma
M14 melanoma = tested on: M14 melanoma
MALME-3M melanoma = tested on: MALME-3M melanoma
MCF7 breast = tested on: MCF7 breast
MDA-MB-231 breast = tested on: MDA-MB-231 breast
MDA-MB-435 = tested on: MDA-MB-435
MDA-N = tested on: MDA-N
MOLT-4 leukemia = tested on: MOLT-4 leukemia
NCI-H226 lung = tested on: NCI-H226 lung
NCI-H23 lung = tested on: NCI-H23 lung
NCI-H460 lung = tested on: NCI-H460 lung
NCI-H522 lung = tested on: NCI-H522 lung
NCI/ADR-RES ovarian = tested on: NCI/ADR-RES ovarian
OVCAR-3 ovarian = tested on: OVCAR-3 ovarian
OVCAR-4 ovarian = tested on: OVCAR-4 ovarian
OVCAR-5 ovarian = tested on: OVCAR-5 ovarian
OVCAR-8 ovarian = tested on: OVCAR-8 ovarian
PC-3 prostate = tested on: PC-3 prostate
RPMI-8226 leukemia = tested on: RPMI-8226 leukemia
RXF 393 renal = tested on: RXF 393 renal
SF-268 CNS = tested on: SF-268 CNS
SF-295 CNS = tested on: SF-295 CNS
SF-539 CNS = tested on: SF-539 CNS
SK-MEL-2 melanoma = tested on: SK-MEL-2 melanoma
SK-MEL-28 melanoma = tested on: SK-MEL-28 melanoma
SK-MEL-5 melanoma = tested on: SK-MEL-5 melanoma
SK-OV-3 ovarian = tested on: SK-OV-3 ovarian
SN12C renal = tested on: SN12C renal
SNB-19 CNS = tested on: SNB-19 CNS
SNB-75 CNS = tested on: SNB-75 CNS
SR leukemia = tested on: SR leukemia
SW-620 colon = tested on: SW-620 colon
T-47D breast = tested on: T-47D breast
TK-10 renal = tested on: TK-10 renal
U251 CNS = tested on: U251 CNS
UACC-257 melanoma = tested on: UACC-257 melanoma
UACC-62 melanoma = tested on: UACC-62 melanoma
UO-31 renal = tested on: UO-31 renal

Work on `OCCOCCO/N=C1\C(c2c(O)[nH]c3ccccc23)=Nc2ccccc21` yielded a TGI (786-0 renal) of 12.1 µM, a TGI (A498 renal) of 0.839 µM and a TGI (A549 NSCLC) of 17.1 µM. For the same compound, the TGI (ACHN renal) was 10.3 µM, the TGI (BT-549 breast) was 18.3 µM and the TGI (CAKI-1 renal) was 10.8 µM. The TGI (CCRF-CEM leukemia) was > 100 µM, the TGI (COLO 205 colon) was 3.38 µM and the TGI (DU-145 prostate) was 22.8 µM. The TGI (EKVX NSCLC) was 18.2 µM, the TGI (HCC-2998 colon) was 11.6 µM and the TGI (HCT-116 colon) was 3.95 µM. For the same compound, the TGI (HCT-15 colon) was > 52.4 µM, the TGI (HL-60(TB) leukemia) was 39.3 µM and the TGI (HOP-62 NSCLC) was 27.6 µM. It also gave a TGI (HOP-92 NSCLC) of 69.6 µM, a TGI (HT29 colon) of 7.11 µM and a TGI (IGROV1 ovarian) of 5.35 µM. The TGI (K-562 leukemia) was > 100 µM, the TGI (KM12 colon) was 14.1 µM and the TGI (LOX IMVI melanoma) was 11.6 µM. For the same compound, the TGI (M14 melanoma) was > 100 µM, the TGI (MALME-3M melanoma) was 17.5 µM and the TGI (MCF7 breast) was 9.73 µM. It also gave a TGI (MDA-MB-231 breast) of 29.9 µM, a TGI (MDA-MB-435) of 27.8 µM and a TGI (MDA-N) of 26.7 µM. The TGI (MOLT-4 leukemia) was > 100 µM, the TGI (NCI-H226 lung) was 10.3 µM and the TGI (NCI-H23 lung) was 29.3 µM. For the same compound, the TGI (NCI-H460 lung) was 15.3 µM, the TGI (NCI-H522 lung) was 17 µM and the TGI (NCI/ADR-RES ovarian) was > 49.2 µM. The TGI (OVCAR-3 ovarian) was 10.2 µM, the TGI (OVCAR-4 ovarian) was 43.1 µM and the TGI (OVCAR-5 ovarian) was 20.5 µM. The TGI (OVCAR-8 ovarian) was 27.9 µM, the TGI (PC-3 prostate) was 18.1 µM and the TGI (RPMI-8226 leukemia) was > 33.2 µM. The TGI (RXF 393 renal) was 6.42 µM, the TGI (SF-268 CNS) was 17.8 µM and the TGI (SF-295 CNS) was 10.2 µM. The TGI (SF-539 CNS) was 11.5 µM, the TGI (SK-MEL-2 melanoma) was 13.7 µM and the TGI (SK-MEL-28 melanoma) was > 85.2 µM. For the same compound, the TGI (SK-MEL-5 melanoma) was 6 µM, the TGI (SK-OV-3 ovarian) was 3.27 µM and the TGI (SN12C renal) was 17.9 µM. The TGI (SNB-19 CNS) was 33.7 µM, the TGI (SNB-75 CNS) was 13.8 µM and the TGI (SR leukemia) was > 100 µM. The TGI (SW-620 colon) was > 100 µM, the TGI (T-47D breast) was > 44.6 µM and the TGI (TK-10 renal) was 20.9 µM. For the same compound, the TGI (U251 CNS) was 16.8 µM, the TGI (UACC-257 melanoma) was > 73.1 µM and the TGI (UACC-62 melanoma) was 6.99 µM. It also gave a TGI (UO-31 renal) of 6.48 µM.

Reference: PubChem BioAssay (NCI)
